The values that follow come from publication PMC10700673, “A Smart Intracellular Self‐Assembling Bioorthogonal Raman Active Nanoprobe for Targeted Tumor Imaging” (Advanced Science, 2023).

Some results are limits rather than exact numbers.

The test system of this series is DU145, LNCaP, and RWPE1 cells. The series can be described thus: cell viability, Trypan blue cell counting. In kind it is cell-based. The conditions noted are these: 48 h of incubation, % of untreated control, three independent experiments. The source says: To confirm that the nanoSABER nanoprobe can effectively differentiate between cells with high and low levels of legumain expression, we examined nanoSABER assembly in DU145, LNCaP, and RWPE1 cells. DU145 and LNCaP are legumain overexpressing and low‐expressing prostate cancer cell lines, respectively, whereas RWPE1 is a normal prostate epithelium cell line. Legumain‐overexpressing tumorigenic cells are aggressive in terms of migration and invasion.^[ [33] ^] Therefore, designing new probes for targeted imaging of legumain expression is of great significance for tumor diagnosis and tumor staging. […] A combination of both high endogenous GSH and high legumain levels is necessary in order for DU145 cells to uncage the thiol and amino groups in the nanoSABER, triggering intramolecular cyclization to form alkyne‐dimers.
For cell viability testing, the total numbers of DU145, LNCaP, and RWPE1 cells were counted after staining with Trypan blue using an Invitrogen Countess 3 automated cell counter. Cells were incubated with nanoSABER at different concentrations. Cell viability was calculated as a percentage of control (untreated cells) set at 100%. Data were expressed as mean ± standard deviation. from three independent experiments.

Regarding “Ac‐Arg‐Arg‐Arg‐Arg‐Arg‐Arg‐Ala‐Ala‐Asn‐Cys(StBu)‐Pra‐Lys‐CBT [nanoSABER]”, the “toxic concentration (no toxicity up to)” value is over 250 µM.
